Laboratory results reported in ChEMBL document CHEMBL3526122, “Identification of UDP-glucuronosyltransferases responsible for the glucuronidation of darexaban, an oral factor Xa inhibitor, in human liver and intestine” (Drug Metab Dispos, 2012).

How the values were obtained:
Type in all cases: ADME
[1] = Fraction unbound in human liver microsomes at 1 to 250 uM after 10 mins by ultrafiltration method in presence of 0.1% fatty acid free BSA
[2] = Fraction unbound in human liver microsomes at 1 to 250 uM after 10 mins by ultrafiltration method in presence of 2% fatty acid free BSA
[3] = target: T1, UDP-glucuronosyltransferase 1A4 (Homo sapiens, UniProt P22310); assay: Activity of human recombinant UGT1A4 expressed in baculovirus-infected insect cells assessed as enzyme-mediated glucuronidation per mg of protein after 10 mins in presence of UDPGA
T1 sequence (P22310 whole entry): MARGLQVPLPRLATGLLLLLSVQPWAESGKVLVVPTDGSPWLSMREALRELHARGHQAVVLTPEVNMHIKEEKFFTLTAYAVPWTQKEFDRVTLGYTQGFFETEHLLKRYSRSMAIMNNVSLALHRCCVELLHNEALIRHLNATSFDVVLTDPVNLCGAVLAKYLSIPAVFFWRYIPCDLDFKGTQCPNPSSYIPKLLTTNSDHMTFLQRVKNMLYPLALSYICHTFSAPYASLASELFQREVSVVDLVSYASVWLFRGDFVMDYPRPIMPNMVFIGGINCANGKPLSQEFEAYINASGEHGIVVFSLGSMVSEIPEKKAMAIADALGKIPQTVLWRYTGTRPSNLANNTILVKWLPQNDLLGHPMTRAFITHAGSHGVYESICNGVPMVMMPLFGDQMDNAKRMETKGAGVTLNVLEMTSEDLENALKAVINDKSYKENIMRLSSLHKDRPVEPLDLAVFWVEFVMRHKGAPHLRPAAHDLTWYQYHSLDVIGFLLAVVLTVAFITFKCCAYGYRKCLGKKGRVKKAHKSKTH

[4] = target: T2, UDP-glucuronosyltransferase 1A8 (Homo sapiens, UniProt Q9HAW9); assay: Inhibition of human recombinant UGT1A8 after 10 mins in presence of UDPGA
T2 sequence (Q9HAW9 whole entry): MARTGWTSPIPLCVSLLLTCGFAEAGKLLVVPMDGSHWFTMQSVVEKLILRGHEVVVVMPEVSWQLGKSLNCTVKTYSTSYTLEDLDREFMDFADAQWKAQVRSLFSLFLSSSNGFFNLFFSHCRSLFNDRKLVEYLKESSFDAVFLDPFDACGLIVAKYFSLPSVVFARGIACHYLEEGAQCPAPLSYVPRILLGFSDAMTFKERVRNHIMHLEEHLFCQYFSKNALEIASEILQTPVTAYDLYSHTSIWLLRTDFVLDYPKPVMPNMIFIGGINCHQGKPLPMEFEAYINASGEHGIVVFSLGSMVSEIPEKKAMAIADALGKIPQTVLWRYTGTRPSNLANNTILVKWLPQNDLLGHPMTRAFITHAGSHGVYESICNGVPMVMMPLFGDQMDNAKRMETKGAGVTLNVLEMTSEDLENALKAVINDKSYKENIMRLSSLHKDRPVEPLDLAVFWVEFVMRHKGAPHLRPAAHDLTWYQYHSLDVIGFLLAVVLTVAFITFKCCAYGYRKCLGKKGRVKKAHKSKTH

[5] = target: T3, UDP-glucuronosyltransferase 1A7 (Homo sapiens, UniProt Q9HAW7); assay: Activity of human recombinant UGT1A7 expressed in baculovirus-infected insect cells assessed as intrinsic clearance for enzyme-mediated glucuronide formation per mg of protein at 1 to 250 uM after 10 mins by Michaelis-Menten plot analysis in presence of UDPGA
T3 sequence (Q9HAW7 whole entry): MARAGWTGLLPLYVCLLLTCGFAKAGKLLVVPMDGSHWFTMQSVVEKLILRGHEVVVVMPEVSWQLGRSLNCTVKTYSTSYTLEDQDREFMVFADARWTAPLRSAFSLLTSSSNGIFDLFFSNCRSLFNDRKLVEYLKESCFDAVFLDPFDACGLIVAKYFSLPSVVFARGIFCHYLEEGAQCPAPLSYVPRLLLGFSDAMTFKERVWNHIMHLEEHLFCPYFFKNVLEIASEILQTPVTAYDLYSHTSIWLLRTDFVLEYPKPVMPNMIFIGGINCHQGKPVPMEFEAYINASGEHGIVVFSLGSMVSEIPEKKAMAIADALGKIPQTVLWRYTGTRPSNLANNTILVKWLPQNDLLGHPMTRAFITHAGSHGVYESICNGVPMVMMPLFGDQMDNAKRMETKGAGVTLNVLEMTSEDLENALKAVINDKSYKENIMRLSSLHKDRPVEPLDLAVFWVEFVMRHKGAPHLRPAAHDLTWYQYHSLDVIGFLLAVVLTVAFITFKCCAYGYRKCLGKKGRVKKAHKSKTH

[6] = target: T4, UDP-glucuronosyltransferase 2B15 (Homo sapiens, UniProt P54855); assay: Activity of human recombinant UGT2B15 expressed in baculovirus-infected insect cells assessed as enzyme-mediated glucuronidation per mg of protein after 10 mins in presence of UDPGA
T4 sequence (P54855 whole entry): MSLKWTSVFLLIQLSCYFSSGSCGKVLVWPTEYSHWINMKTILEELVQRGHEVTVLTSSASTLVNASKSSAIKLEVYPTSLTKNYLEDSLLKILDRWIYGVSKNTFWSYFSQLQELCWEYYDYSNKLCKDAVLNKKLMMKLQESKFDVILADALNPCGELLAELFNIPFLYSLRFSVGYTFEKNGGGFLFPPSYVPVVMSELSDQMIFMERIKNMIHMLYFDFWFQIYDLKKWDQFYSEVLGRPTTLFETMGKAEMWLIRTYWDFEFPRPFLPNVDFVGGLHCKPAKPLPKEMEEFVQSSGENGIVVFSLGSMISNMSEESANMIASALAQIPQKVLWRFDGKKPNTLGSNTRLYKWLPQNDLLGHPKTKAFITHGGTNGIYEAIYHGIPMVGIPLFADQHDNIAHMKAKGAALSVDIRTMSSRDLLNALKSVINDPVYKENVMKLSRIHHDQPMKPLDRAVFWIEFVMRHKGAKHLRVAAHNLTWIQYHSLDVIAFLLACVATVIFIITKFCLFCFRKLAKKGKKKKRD

**Q.** Which fraction unbound at 10 min, up to 250 µM [1] does the source give for `COc1ccc(C(=O)Nc2cccc(O)c2NC(=O)c2ccc(N3CCCN(C)CC3)cc2)cc1.O=C(O)CCC(=O)O` here?
**A.** The fraction unbound at 10 min, up to 250 µM was 0.72.

**Q.** What about the fraction unbound at 10 min, up to 250 µM [2] of the same molecule?
**A.** Its fraction unbound at 10 min, up to 250 µM is 0.251.

**Q.** And the Drug metabolism [3]?
**A.** The Drug metabolism was less than 0.01 nmol/min/mg.

**Q.** And the Ki [4]?
**A.** The Ki was 354 µM.

**Q.** And the clearance [5]?
**A.** Its clearance is 12.3 µL/min/mg.

**Q.** What about the Drug metabolism [6] of the same molecule?
**A.** The Drug metabolism was less than 0.01 nmol/min/mg.
